Reference: ChEMBL document CHEMBL1133224, “New ratiometric fluorescent calcium indicators with moderately attenuated binding affinities” (Bioorg Med Chem Lett, 2000)

Test: Calcium binding affinity (fluorescent calcium probe) expressed in terms of dissociation constant

Row | Structure (SMILES) | Kd [nM]
1 | O=C(O)CN(CC(=O)O)c1cc2oc(-c3ncc(C(=O)O)o3)cc2cc1OCCOc1c(F)cccc1N(CC(=O)O)CC(=O)O | 5300
2 | Cc1ccc(N(CC(=O)O)CC(=O)O)c(OCCOc2cc(-c3nc4cc(C(F)(F)F)ccc4s3)ccc2N(CC(=O)O)CC(=O)O)c1 | 660
3 | O=C(O)CN(CC(=O)O)c1cc(F)ccc1OCCOc1cc2cc(-c3ncc(C(=O)O)o3)oc2cc1N(CC(=O)O)CC(=O)O | 770
4 | O=C(O)CN(CC(=O)O)c1ccc(F)cc1OCCOc1cc(-c2cc3ccc(C(=O)O)cc3[nH]2)ccc1N(CC(=O)O)CC(=O)O | 470
5 | O=C(O)CN(CC(=O)O)c1ccc(F)cc1OCCOc1cc(-c2nc3cc(C(F)(F)F)ccc3s2)ccc1N(CC(=O)O)CC(=O)O | 1400

Stronger by Kd, values ahead:

Row | Kd [nM] | Structure (SMILES)
6 | 400 | O=C(O)CN(CC(=O)O)c1ccc(F)cc1OCCOc1cc2cc(-c3ncc(C(=O)O)o3)oc2cc1N(CC(=O)O)CC(=O)O
7 | 400 | O=C(O)CN(CC(=O)O)c1ccc(Cl)cc1OCCOc1cc2cc(-c3ncc(C(=O)O)o3)oc2cc1N(CC(=O)O)CC(=O)O
8 | 230 | Cc1ccc(N(CC(=O)O)CC(=O)O)c(OCCOc2cc(-c3cc4ccc(C(=O)O)cc4[nH]3)ccc2N(CC(=O)O)CC(=O)O)c1
9 | 140 | Cc1ccc(N(CC(=O)O)CC(=O)O)c(OCCOc2cc3cc(-c4ncc(C(=O)O)o4)oc3cc2N(CC(=O)O)CC(=O)O)c1
